The source of these data is ChEMBL document CHEMBL5029158, “Design, structure-activity relationship study and biological evaluation of the thieno[3,2-c]isoquinoline scaffold as a potential anti-cancer agent” (Bioorg Med Chem Lett, 2021).

Molecules are shown by their SMILES. Calls of active or inactive are those of the source. The calls are words filed in the database; no cut-off is given here. Bounds are passed on as bounds.

Data set [1] deals with A549. Briefly: Cytotoxicity against human A549 cells assessed as reduction in cell viability. It is filed as functional, cell-based.
The nature of data set [2]: Selectivity index, ratio of IC50 for cytotoxicity against human fibroblasts to IC50 for human HeLa cells. The format is toxicity, cell-based. Particulars: human fibroblasts versus HeLa cells, read-out: Selectivity Index.
The next data set has as its system HeLa. Briefly: Cytotoxicity against human HeLa cells assessed as reduction in cell viability. The format is functional, cell-based.
The subject of data set [3] is A549. Briefly: Potency index, ratio of […] for cytotoxicity against human A549 cells assessed as reduction in cell viability. The format is functional.
A short description of data set [4]: Selectivity index, ratio of IC50 for cytotoxicity against human fibroblasts to IC50 for human MDA-MB-231 cells. The format is toxicity, cell-based. To be noted: human fibroblasts versus MDA-MB-231 cells, read-out: Selectivity Index.
Data set [5] has as its target T1, Tubulin (Homo sapiens) (UniProt P68371+Q9H4B7+P0DPH7+P68366+Q13509+Q71U36+P04350+Q3ZCM7+P07437+P68363+Q9BQE3+Q6PEY2+Q13885+Q9BVA1+Q9BUF5). Briefly: Inhibition of colchicine binding to tubulin (unknown origin) at 1 uM by fluorescence assay. The format is protein-complex assay.
The next data set has as its system HFF-1. Briefly: Cytotoxicity against human HFF-1 cells assessed as reduction in cell viability. The format is cell-based.
In data set [6] the target is T1, Tubulin (Homo sapiens). Briefly: Inhibition of microtubule (unknown origin) polymerization at 5 uM. It is filed as protein-complex assay.
In another data set the test system is MDA-MB-231. Put plainly: Cytotoxicity against human MDA-MB-231 cells assessed as reduction in cell viability. The format is functional, cell-based.
Data set [7] can be described thus: Selectivity index, ratio of IC50 for cytotoxicity against human fibroblasts to IC50 for human HCT-116 cells. To be noted: human fibroblasts versus HCT-116 cells, read-out: Selectivity Index. The format is toxicity, cell-based.
The next data set concerns Fibroblast. Briefly: Cytotoxicity against human fibroblasts assessed as reduction in cell viability. The format is cell-based.
The subject of data set [8] is A549. Briefly: Induction of mitotic arrest in human A549 cells assessed as reduction in microtubule network with fragmented spindle poles at 0.50 uM measured after 8 hrs by DAPI/ACA staining based fluorescence microscopic analysis. To be noted: dose 0.5 µM. It is filed as functional, cell-based.
The nature of data set [9]: Selectivity index, ratio of IC50 for cytotoxicity against human fibroblasts to IC50 for human A549 cells. The format is toxicity, cell-based. To be noted: human fibroblasts versus A549 cells, read-out: Selectivity Index.
Data set [10] deals with A549. Put plainly: Cytotoxicity against human A549 cells assessed as cell death measured after 2 to 3 days. It is filed as functional, cell-based. To be noted: time 2-3 day.
The test system of another data set is HCT-116. Briefly: Cytotoxicity against human HCT-116 cells assessed as reduction in cell viability. It is filed as functional, cell-based.
The target in data set [11] is T1, Tubulin (Homo sapiens). Briefly: Inhibition of microtubule (unknown origin) polymerization at 0.6 uM. The format is protein-complex assay.
Data set [12] has as its system A549. Briefly: Antitumor activity against human A549 cell assessed as disrupted in spheroid morphology at 0.5 to 1 uM measured after 6 days. It is filed as functional, cell-based. Particulars: dose 0.5-1 µM, time 6.0 day.

One may read the IC50 as the concentration that gives 50% inhibition.

On to `CS(=O)(=O)N1Cc2ccccc2-c2sccc21`, for which the IC50 in the data set on A549 [1] was more than 10000 nM.
Regarding `COc1ccc(S(=O)(=O)N2Cc3ccccc3-c3sc(Br)cc32)cc1`, the selectivity ratio was found to be 3.2 in data set [2], 5.3 in [4], 3.2 in [7] and 3.8 in data set [9]. Also, the half-maximal inhibitory concentration (IC50) was determined as 430 nM with HeLa; 790 nM with HFF-1; 260 nM with MDA-MB-231; 1400 nM in the data set on Fibroblast; 430 nM with HCT-116; 370 nM with A549 [1]. Further, in the data set with A549 [3], the “Ratio IC50” value is given as 23.1. Besides, the inhibition entry at Tubulin (Homo sapiens) [5], at Tubulin (Homo sapiens) [6] and at Tubulin (Homo sapiens) [11] was “Active” each time. Further, the result with A549 [8] was inactive. For the same compound, the outcome in the data set with A549 [10] and in the data set on A549 [12] was Active.
As for `COc1cc2c(c(OC)c1OC)-c1ccc(OC)c(=O)cc1[C@@H](NC(C)=O)CC2` [COLCHICINE], the results for the IC50 in the data set on HeLa, in the data set on HCT-116 and with A549 [1] were 10 nM, 22 nM and 16 nM, respectively.
With `O=S(=O)(c1ccccc1)N1Cc2ccccc2-c2sccc21`, the half-maximal inhibitory concentration (IC50) in the data set with A549 [1] was 5200 nM.
As for `COc1ccc(S(=O)(=O)N2Cc3ccccc3-c3sc(Cl)c(C)c32)cc1`, the “Ratio IC50” value in the data set with A549 [3] stood at 34.3. Also, the IC50 in the data set on A549 [1] turned out to be 550 nM.
The matching figures for `COc1ccc(S(=O)(=O)N2Cc3ccccc3-c3sc(I)cc32)cc1`: 48.7 and 780 nM.
As to `Cc1ccc(S(=O)(=O)N2Cc3ccccc3-c3sccc32)cc1`, the IC50 with A549 [1] turned out to be 3400 nM.
Consider `CC(C)(C)c1ccc(S(=O)(=O)N2Cc3ccccc3-c3sccc32)cc1`, for which the IC50 in the data set with A549 [1] is more than 10000 nM.
On to `CC(C)(C)c1ccc(S(=O)(=O)N2Cc3ccccc3-c3sc(Br)cc32)cc1`, for which the “Ratio IC50” value in the data set on A549 [3] is given as more than 625. Also, in the data set with A549 [1], the concentration for half-maximal inhibition (IC50) was more than 10000 nM.
`COc1ccc(S(=O)(=O)N2Cc3ccccc3-c3sc(Br)c(C)c32)cc1`: in the data set on A549 [3], the “Ratio IC50” value is reported as 175. Moreover, the IC50 with A549 [1] came to 2800 nM.
As for `O=S(=O)(c1ccccc1)N1Cc2ccccc2-c2sc(Br)cc21`, in the data set on A549 [3], the “Ratio IC50” value was found to be 118.7. In addition, in the data set with A549 [1], the IC50 is 1900 nM.
Turning to `COc1ccc(S(=O)(=O)N2Cc3ccccc3-c3sccc32)cc1`, in the data set with A549 [1], the concentration for half-maximal inhibition (IC50) is 780 nM.
Regarding `CC[C@]1(O)C[C@@H]2CN(CCc3c([nH]c4ccccc34)[C@@](C(=O)OC)(c3cc4c(cc3OC)N(C)[C@H]3[C@@](O)(C(=O)OC)[C@H](OC(C)=O)[C@]5(CC)C=CCN6CC[C@]43[C@@H]65)C2)C1`, the inhibition entry at Tubulin (Homo sapiens) [5] was “inactive”.
Take `Cc1cccc(S(=O)(=O)N2Cc3ccccc3-c3sc(Br)cc32)c1`: in the data set with A549 [3], the “Ratio IC50” value is 143.7. The IC50 in the data set with A549 [1] amounted to 2300 nM.
For `COc1ccc(S(=O)(=O)N2Cc3ccccc3-c3sc(Cl)cc32)cc1`, the “Ratio IC50” value in the data set with A549 [3] is reported as 36.8. Further, in the data set on A549 [1], the IC50 was 430 nM.
For `Cc1ccc(S(=O)(=O)N2Cc3ccccc3-c3sc(Br)cc32)cc1` the same measures were 131.2 and 2100 nM.
For `CS(=O)(=O)N1Cc2ccccc2-c2sc(Br)cc21` the same measures were more than 625 and more than 10000 nM.
Consider `COC(=O)Nc1nc2cc(C(=O)c3cccs3)ccc2[nH]1`, for which, at Tubulin (Homo sapiens) [5], the inhibition entry is “Active”.
`COc1ccc(S(=O)(=O)N2Cc3ccccc3-c3scc(C)c32)cc1`: in the data set on A549 [3], the “Ratio IC50” value is 39.3. In the data set with A549 [1], the IC50 was found to be 630 nM.
For `O=S(=O)(c1ccc(C(F)(F)F)cc1)N1Cc2ccccc2-c2sccc21`, in the data set on A549 [1], the IC50 is more than 10000 nM.
`O=S(=O)(c1ccc(C(F)(F)F)cc1)N1Cc2ccccc2-c2sc(Br)cc21`: in the data set on A549 [3], the “Ratio IC50” value is recorded as more than 625. In addition, the IC50 with A549 [1] is more than 10000 nM.
In the case of `Cc1cccc(S(=O)(=O)N2Cc3ccccc3-c3sccc32)c1`, the IC50 in the data set with A549 [1] is 6000 nM.
In the case of `O=S(=O)(c1cccs1)N1Cc2ccccc2-c2sccc21`, the half-maximal inhibitory concentration (IC50) with A549 [1] is more than 10000 nM.
